Experiments:
[1] = Plasma protein binding in human; type: ADME, cell-free; conditions: read-out: PPB (converted)
[2] = system: Canis familiaris; assay: Effect on sleep parameter in po dosed Beagle dog by EEG analysis; type: functional, Canis lupus familiaris
[3] = biological target: Cytochrome P450 3A4 (Homo sapiens, UniProt P08684); assay: Inhibition of CYP3A4 (unknown origin); type: ADME
[4] = biological target: T1, Orexin receptor type 2 (Homo sapiens, UniProt O43614); assay: Antagonist activity at human OX2R expressed in CHO cells by FLIPR assay; type: cell-based
T1 sequence (O43614 whole entry): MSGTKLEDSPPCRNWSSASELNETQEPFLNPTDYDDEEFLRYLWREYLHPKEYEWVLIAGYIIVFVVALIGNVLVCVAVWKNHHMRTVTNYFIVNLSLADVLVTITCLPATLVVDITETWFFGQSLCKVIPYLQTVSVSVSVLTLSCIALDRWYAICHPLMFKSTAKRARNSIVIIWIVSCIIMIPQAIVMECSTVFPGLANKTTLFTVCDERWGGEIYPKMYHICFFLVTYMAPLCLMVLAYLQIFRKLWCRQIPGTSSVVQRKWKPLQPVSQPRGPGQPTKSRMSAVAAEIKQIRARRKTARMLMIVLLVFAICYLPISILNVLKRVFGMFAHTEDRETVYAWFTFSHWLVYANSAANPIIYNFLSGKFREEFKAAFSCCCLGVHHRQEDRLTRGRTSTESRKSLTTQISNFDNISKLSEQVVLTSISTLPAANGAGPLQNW

[5] = Half life in iv dosed Beagle dog; type: ADME, organism-based, Canis lupus familiaris; conditions: in vivo
[6] = species: Rattus norvegicus; assay: Receptor occupancy at OX2R in rat brain assessed as drug level in plasma; type: functional
[7] = biological target: T2, Orexin/Hypocretin receptor type 1 (Homo sapiens, UniProt O43613); assay: Antagonist activity at human OX1R expressed in CHO cells by FLIPR assay; type: cell-based
T2 sequence (O43613 whole entry): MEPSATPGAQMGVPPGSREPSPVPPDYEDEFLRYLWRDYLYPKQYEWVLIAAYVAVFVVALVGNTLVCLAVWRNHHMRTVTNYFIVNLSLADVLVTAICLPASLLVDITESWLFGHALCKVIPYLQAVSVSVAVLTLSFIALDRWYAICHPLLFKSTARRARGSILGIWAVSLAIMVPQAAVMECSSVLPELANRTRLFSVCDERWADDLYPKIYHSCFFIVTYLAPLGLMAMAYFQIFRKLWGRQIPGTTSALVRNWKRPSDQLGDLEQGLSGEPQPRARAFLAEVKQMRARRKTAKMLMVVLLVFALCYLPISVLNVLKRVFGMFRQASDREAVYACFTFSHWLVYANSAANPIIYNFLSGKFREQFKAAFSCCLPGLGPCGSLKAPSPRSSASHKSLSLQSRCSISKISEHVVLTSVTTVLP

[8] = Clearance in iv dosed Sprague-Dawley rat; type: ADME, organism-based; conditions: in vivo
[9] = Clearance in iv dosed Beagle dog; type: ADME, organism-based, Canis lupus familiaris; conditions: in vivo
[10] = system: Rattus norvegicus; assay: Effect on sleep parameter in po dosed Sprague-Dawley rat by EEG analysis; type: functional
[11] = Plasma protein binding in Beagle dog; type: ADME, cell-free, Canis lupus familiaris; conditions: read-out: PPB (converted)
[12] = Tmax in human plasma at 5 to 250 mg, po; type: ADME, organism-based
[13] = Half life in iv dosed Sprague-Dawley rat; type: ADME, organism-based; conditions: in vivo
[14] = Clearance in iv dosed rhesus monkey; type: ADME, organism-based, Macaca mulatta; conditions: in vivo
[15] = Half life in human plasma at 5 to 250 mg, po; type: ADME, organism-based
[16] = Half life in iv dosed rhesus monkey; type: ADME, organism-based, Macaca mulatta; conditions: in vivo
[17] = Oral bioavailability rhesus monkey; type: ADME, organism-based, Macaca mulatta; conditions: in vivo
[18] = system: Mus musculus; assay: Effect on sleep parameter in po dosed C57/BL6 mouse by EEG analysis; type: functional
[19] = Oral bioavailability in Sprague-Dawley rat; type: ADME, organism-based; conditions: in vivo
[20] = Lipophilicity, log D of the compound; type: physicochemical; conditions: octanol/water
[21] = system: Liver microsome; assay: GSH activity in human liver microsomes assessed as reduction in GSH adduct formation; type: ADME; design: scale not given: the % may be the effect or the level left
[22] = system: Rhesus monkey; assay: Effect on sleep parameter in po dosed rhesus monkey by EEG analysis; type: functional, Macaca mulatta
[23] = Plasma protein binding in rhesus monkey; type: ADME, cell-free, Macaca mulatta; conditions: read-out: PPB (converted)
[24] = Plasma protein binding in Sprague-Dawley rat; type: ADME, cell-free; conditions: read-out: PPB (converted)
[25] = Oral bioavailability Beagle dog; type: ADME, organism-based, Canis lupus familiaris; conditions: in vivo
[26] = system: Homo sapiens; assay: Effect on sleep parameter in insomnia patient assessed as latency to persistent sleep time at 40 mg, po measured on night 28 by polysomnography; type: functional
[27] = Clearance in iv dosed rat; type: ADME, organism-based; conditions: in vivo
[28] = system: Homo sapiens; assay: Effect on sleep parameter in insomnia patient assessed as latency to persistent sleep time at 10 mg, po measured on night 28 by polysomnography; type: functional
[29] = system: Homo sapiens; assay: Effect on sleep parameter in insomnia patient assessed as latency to persistent sleep time at 80 mg, po measured on night 28 by polysomnography; type: functional
[30] = Terminal half life in human plasma; type: ADME, organism-based; conditions: read-out: beta t1/2 (converted)
[31] = system: Homo sapiens; assay: Effect on sleep parameter in insomnia patient assessed as latency to persistent sleep time at 10 mg, po measured on night 1 by polysomnography; type: functional
[32] = system: Homo sapiens; assay: Effect on sleep parameter in insomnia patient assessed as total sleep time at 10 mg, po measured on night 28 by polysomnography; type: functional
[33] = system: Homo sapiens; assay: Effect on sleep parameter in insomnia patient assessed as latency to persistent sleep time at 20 mg, po measured on night 28 by polysomnography; type: functional
[34] = system: Homo sapiens; assay: Effect on sleep parameter in insomnia patient assessed as wake after sleep onset time at 20 mg, po measured on night 28 by polysomnography; type: functional
[35] = system: Homo sapiens; assay: Effect on sleep parameter in insomnia patient assessed as sleep efficiency at 40 mg, po measured on night 28 by polysomnography; type: functional
[36] = system: Homo sapiens; assay: Effect on sleep parameter in insomnia patient assessed as wake after sleep onset time at 80 mg, po measured on night 28 by polysomnography; type: functional
[37] = Plasma protein binding in dog; type: ADME, cell-free, Canis lupus familiaris; conditions: read-out: PPB (converted)
[38] = system: Homo sapiens; assay: Effect on sleep parameter in insomnia patient assessed as wake after sleep onset time at 40 mg, po measured on night 1 by polysomnography; type: functional
[39] = system: Homo sapiens; assay: Effect on sleep parameter in insomnia patient assessed as total sleep time at 40 mg, po measured on night 1 by polysomnography; type: functional
[40] = system: Homo sapiens; assay: Effect on sleep parameter in insomnia patient assessed as sleep efficiency at 20 mg, po measured on night 28 by polysomnography; type: functional
[41] = system: Homo sapiens; assay: Effect on sleep parameter in insomnia patient assessed as total sleep time at 20 mg, po measured on night 1 by polysomnography; type: functional
[42] = system: Canis familiaris; assay: Effect on sleep parameter in po dosed dog by EEG analysis; type: functional, Canis lupus familiaris
[43] = system: Homo sapiens; assay: Effect on sleep parameter in insomnia patient assessed as wake after sleep onset time at 80 mg, po measured on night 1 by polysomnography; type: functional
[44] = system: Homo sapiens; assay: Effect on sleep parameter in insomnia patient assessed as wake after sleep onset time at 10 mg, po measured on night 28 by polysomnography; type: functional
[45] = system: Homo sapiens; assay: Effect on sleep parameter in insomnia patient assessed as total sleep time at 80 mg, po measured on night 28 by polysomnography; type: functional
[46] = system: Homo sapiens; assay: Effect on sleep parameter in insomnia patient assessed as total sleep time at 40 mg, po measured on night 28 by polysomnography; type: functional
[47] = system: Homo sapiens; assay: Effect on sleep parameter in insomnia patient assessed as latency to persistent sleep time at 20 mg, po measured on night 1 by polysomnography; type: functional
[48] = system: Homo sapiens; assay: Effect on sleep parameter in insomnia patient assessed as total sleep time at 80 mg, po measured on night 1 by polysomnography; type: functional
[49] = system: Homo sapiens; assay: Effect on sleep parameter in insomnia patient assessed as wake after sleep onset time at 20 mg, po measured on night 1 by polysomnography; type: functional
[50] = Tmax in human plasma; type: ADME, organism-based
[51] = system: Homo sapiens; assay: Effect on sleep parameter in insomnia patient assessed as sleep efficiency at 10 mg, po measured on night 28 by polysomnography; type: functional
[52] = system: Homo sapiens; assay: Effect on sleep parameter in insomnia patient assessed as sleep efficiency at 40 mg, po measured on night 1 by polysomnography; type: functional
[53] = system: Homo sapiens; assay: Effect on sleep parameter in insomnia patient assessed as sleep efficiency at 80 mg, po measured on night 28 by polysomnography; type: functional
[54] = system: Homo sapiens; assay: Effect on sleep parameter in insomnia patient assessed as sleep efficiency at 10 mg, po measured on night 1 by polysomnography; type: functional
[55] = Apparent permeability of the compound; type: physicochemical; conditions: not told
[56] = system: Homo sapiens; assay: Effect on sleep parameter in insomnia patient assessed as latency to persistent sleep time at 80 mg, po measured on night 1 by polysomnography; type: functional
[57] = system: Homo sapiens; assay: Effect on sleep parameter in insomnia patient assessed as latency to persistent sleep time at 40 mg, po measured on night 1 by polysomnography; type: functional
[58] = system: Homo sapiens; assay: Effect on sleep parameter in insomnia patient assessed as wake after sleep onset time at 40 mg, po measured on night 28 by polysomnography; type: functional
[59] = system: Rattus norvegicus; assay: Effect on sleep parameter in po dosed rat by EEG analysis; type: functional
[60] = system: Homo sapiens; assay: Effect on sleep parameter in insomnia patient assessed as sleep efficiency at 80 mg, po measured on night 1 by polysomnography; type: functional
[61] = system: Homo sapiens; assay: Effect on sleep parameter in insomnia patient assessed as wake after sleep onset time at 10 mg, po measured on night 1 by polysomnography; type: functional
[62] = system: Homo sapiens; assay: Effect on sleep parameter in insomnia patient assessed as total sleep time at 10 mg, po measured on night 1 by polysomnography; type: functional
[63] = system: Homo sapiens; assay: Effect on sleep parameter in insomnia patient assessed as sleep efficiency at 20 mg, po measured on night 1 by polysomnography; type: functional
[64] = system: Homo sapiens; assay: Effect on sleep parameter in insomnia patient assessed as total sleep time at 20 mg, po measured on night 28 by polysomnography; type: functional

Sequence of Cytochrome P450 3A4 (P08684 whole entry): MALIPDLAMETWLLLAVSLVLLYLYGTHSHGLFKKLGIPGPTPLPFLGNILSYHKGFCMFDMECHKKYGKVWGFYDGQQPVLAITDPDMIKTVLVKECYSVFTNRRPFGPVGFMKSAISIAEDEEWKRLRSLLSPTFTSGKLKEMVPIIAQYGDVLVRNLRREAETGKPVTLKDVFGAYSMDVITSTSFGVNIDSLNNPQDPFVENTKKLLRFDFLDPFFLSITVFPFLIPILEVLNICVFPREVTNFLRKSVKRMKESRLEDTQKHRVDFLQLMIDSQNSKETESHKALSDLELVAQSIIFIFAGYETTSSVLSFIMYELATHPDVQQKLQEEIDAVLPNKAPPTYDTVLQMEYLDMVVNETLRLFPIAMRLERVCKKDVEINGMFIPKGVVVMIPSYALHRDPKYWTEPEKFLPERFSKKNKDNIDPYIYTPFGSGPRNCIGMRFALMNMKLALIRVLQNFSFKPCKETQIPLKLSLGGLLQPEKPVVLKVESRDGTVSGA

COc1ccc(CNC(=O)c2cc(-c3cncc(Cl)c3)cnc2-c2ccccn2)nc1OC [MK-1064] showed a fraction unbound [1] of 0.03, an Activity [2] of 1 mg/kg and an IC50 [3] of 28000 nM. It also gave an IC50 [4] of 18 nM, a half-life [5] of 1 h and an Occ90 [6] of 695 nM. The IC50 [7] was 1790 nM, the clearance [8] was 36 mL/min/kg and the clearance [9] was 16 mL/min/kg. It also gave an Activity [10] of 20 mg/kg, a fraction unbound [11] of 0.29 and a Tmax [12] of 1 h. The half-life [13] was 0.3 h, the clearance [14] was 12 mL/min/kg and the half-life [15] was 1.6 h. For the same molecule, the half-life [16] was 0.8 h, the bioavailability [17] was 16% and the Activity [18] was 100 mg/kg. For the same molecule, the bioavailability [19] was 54%, the logD [20] was 1.8 and the Activity [21] was 85%. It also gave an Activity [22] of 10 mg/kg, a fraction unbound [23] of 0.06 and a fraction unbound [24] of 0.19. It also gave a bioavailability [25] of 48%.
Cc1ccc(-n2nccn2)c(C(=O)N2CCN(c3nc4cc(Cl)ccc4o3)CC[C@H]2C)c1 [SUVOREXANT] gave a Time [26] of -3.8 min, a clearance [27] of 44 mL/min/kg and a Time [28] of -2.3 min. The Time [29] was -9.5 min, the half-life [30] was 8 h and the Time [31] was -3.4 min. For the same molecule, the Time [32] was 22.3 min, the Time [33] was -22.3 min and the Time [34] was -28.1 min. It also gave an Occ90 [6] of 1070 nM, an Activity [35] of 7.8% and a Time [36] of -28.9 min. The fraction unbound [37] was 0.01, the Time [38] was -33.9 min and the Time [39] was 52.4 min. For the same molecule, the Activity [40] was 10.4%, the Time [41] was 36.2 min and the Activity [42] was 3 mg/kg. For the same molecule, the Time [43] was -36.8 min, the Time [44] was -21.4 min and the Time [45] was 36.6 min. It also gave a Time [46] of 36.8 min, a Time [47] of -9.4 min and a Time [48] of 61.9 min. The Time [49] was -24.7 min, the Tmax [50] was 1.5 h and the Activity [51] was 4.7%. For the same molecule, the Activity [52] was 10.8%, the Activity [53] was 7.6% and the Activity [54] was 5.2%. It also gave a Papp [55] of 37 ×10⁻⁶ cm/s, a Time [56] of -25.4 min and a Time [57] of -23.1 min. For the same molecule, the Time [58] was -33.2 min, the Activity [59] was 10 mg/kg and the Activity [60] was 12.9%. The Time [61] was -21.2 min, the Time [62] was 25.1 min and the Activity [63] was 7.6%. For the same molecule, the Time [64] was 49.9 min.

Reference: ChEMBL document CHEMBL3769367, “Orexin Receptor Antagonists: New Therapeutic Agents for the Treatment of Insomnia” (J Med Chem, 2016)
